In patent publication US20230416248A1, “COMPOUNDS AND USES THEREOF” (Foghorn Therapeutics Inc., priority 2020, published 2023):
pIC50: −log10 of the molar value. Like-named read-outs stand apart in the source and are kept apart here.

Legend:
BRM = target: T1, BRM (Homo sapiens, UniProt P51531); assay: ATPase catalytic activity of BRM, ADP-Glo in vitro biochemical assay; conditions: for pIC50: 30 nM BRM, 400 μM ATP; for Ratio* (BRG1 IC50 (μM) divided by BRM IC50 (μM)): selectivity ratio BRG1 IC50 / BRM IC50
T1 construct: made in house; host or cells: High Five insect cells
T1 sequence (P51531 whole entry): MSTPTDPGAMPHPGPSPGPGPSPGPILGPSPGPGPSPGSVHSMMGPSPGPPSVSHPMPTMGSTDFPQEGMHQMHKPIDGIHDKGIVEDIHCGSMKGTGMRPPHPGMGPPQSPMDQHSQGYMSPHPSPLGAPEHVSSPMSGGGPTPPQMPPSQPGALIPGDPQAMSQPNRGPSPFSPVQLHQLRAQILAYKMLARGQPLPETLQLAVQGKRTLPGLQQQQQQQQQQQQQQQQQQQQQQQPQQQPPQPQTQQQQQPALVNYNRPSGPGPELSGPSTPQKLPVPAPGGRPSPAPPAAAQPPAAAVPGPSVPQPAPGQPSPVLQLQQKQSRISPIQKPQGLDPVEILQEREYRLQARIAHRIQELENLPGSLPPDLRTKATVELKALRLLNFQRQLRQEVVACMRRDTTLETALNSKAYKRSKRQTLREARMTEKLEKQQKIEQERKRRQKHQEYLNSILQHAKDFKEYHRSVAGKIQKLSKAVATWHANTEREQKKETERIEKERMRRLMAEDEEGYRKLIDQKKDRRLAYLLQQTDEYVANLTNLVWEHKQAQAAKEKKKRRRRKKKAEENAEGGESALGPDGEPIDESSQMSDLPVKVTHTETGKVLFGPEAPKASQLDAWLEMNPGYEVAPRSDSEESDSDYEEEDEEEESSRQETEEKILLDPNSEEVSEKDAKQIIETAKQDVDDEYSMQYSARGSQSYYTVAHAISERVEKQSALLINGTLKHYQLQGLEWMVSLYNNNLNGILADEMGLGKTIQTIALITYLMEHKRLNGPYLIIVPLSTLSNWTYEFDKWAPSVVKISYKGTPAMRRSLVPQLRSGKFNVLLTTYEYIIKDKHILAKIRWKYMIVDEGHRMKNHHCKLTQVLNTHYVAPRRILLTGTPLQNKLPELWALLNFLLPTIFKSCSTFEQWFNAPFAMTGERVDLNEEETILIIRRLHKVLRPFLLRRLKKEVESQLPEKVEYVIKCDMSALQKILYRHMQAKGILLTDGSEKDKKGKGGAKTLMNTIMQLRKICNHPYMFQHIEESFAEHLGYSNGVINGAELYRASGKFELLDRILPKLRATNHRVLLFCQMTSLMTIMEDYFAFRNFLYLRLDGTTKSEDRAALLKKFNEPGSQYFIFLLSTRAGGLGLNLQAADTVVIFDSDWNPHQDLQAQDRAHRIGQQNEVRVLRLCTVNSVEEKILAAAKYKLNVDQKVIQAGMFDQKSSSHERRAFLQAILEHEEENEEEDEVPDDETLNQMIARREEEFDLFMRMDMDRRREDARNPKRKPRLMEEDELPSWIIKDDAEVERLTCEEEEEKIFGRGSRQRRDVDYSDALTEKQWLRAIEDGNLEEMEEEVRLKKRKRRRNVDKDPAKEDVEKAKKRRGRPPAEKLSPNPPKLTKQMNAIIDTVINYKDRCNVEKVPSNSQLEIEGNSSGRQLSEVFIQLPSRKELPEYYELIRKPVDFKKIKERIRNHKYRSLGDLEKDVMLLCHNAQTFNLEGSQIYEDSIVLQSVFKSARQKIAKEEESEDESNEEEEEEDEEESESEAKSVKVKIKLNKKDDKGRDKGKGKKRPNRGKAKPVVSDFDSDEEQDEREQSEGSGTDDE
Method in brief: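 Recombinant BRM (30 nM) hydrolysed 400 μM ATP with 20 nM salmon sperm DNA in pH 8 Tris buffer containing 20 mM MgCl2, 50 mM NaCl, 0.1% Tween-20 and 1 mM DTT, 1 h at room temperature. ADP formed was quantified by ADP-Glo luminescence.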

BRG-1 = target: T2, BRG-1 (Homo sapiens, UniProt P51532); assay: ATPase catalytic activity of BRG-1, ADP-Glo in vitro biochemical assay; conditions: 30 nM BRG-1, 400 μM ATP, read-out: BRG1 IC50
T2 construct: made in house; host or cells: High Five insect cells
T2 sequence (P51532 whole entry): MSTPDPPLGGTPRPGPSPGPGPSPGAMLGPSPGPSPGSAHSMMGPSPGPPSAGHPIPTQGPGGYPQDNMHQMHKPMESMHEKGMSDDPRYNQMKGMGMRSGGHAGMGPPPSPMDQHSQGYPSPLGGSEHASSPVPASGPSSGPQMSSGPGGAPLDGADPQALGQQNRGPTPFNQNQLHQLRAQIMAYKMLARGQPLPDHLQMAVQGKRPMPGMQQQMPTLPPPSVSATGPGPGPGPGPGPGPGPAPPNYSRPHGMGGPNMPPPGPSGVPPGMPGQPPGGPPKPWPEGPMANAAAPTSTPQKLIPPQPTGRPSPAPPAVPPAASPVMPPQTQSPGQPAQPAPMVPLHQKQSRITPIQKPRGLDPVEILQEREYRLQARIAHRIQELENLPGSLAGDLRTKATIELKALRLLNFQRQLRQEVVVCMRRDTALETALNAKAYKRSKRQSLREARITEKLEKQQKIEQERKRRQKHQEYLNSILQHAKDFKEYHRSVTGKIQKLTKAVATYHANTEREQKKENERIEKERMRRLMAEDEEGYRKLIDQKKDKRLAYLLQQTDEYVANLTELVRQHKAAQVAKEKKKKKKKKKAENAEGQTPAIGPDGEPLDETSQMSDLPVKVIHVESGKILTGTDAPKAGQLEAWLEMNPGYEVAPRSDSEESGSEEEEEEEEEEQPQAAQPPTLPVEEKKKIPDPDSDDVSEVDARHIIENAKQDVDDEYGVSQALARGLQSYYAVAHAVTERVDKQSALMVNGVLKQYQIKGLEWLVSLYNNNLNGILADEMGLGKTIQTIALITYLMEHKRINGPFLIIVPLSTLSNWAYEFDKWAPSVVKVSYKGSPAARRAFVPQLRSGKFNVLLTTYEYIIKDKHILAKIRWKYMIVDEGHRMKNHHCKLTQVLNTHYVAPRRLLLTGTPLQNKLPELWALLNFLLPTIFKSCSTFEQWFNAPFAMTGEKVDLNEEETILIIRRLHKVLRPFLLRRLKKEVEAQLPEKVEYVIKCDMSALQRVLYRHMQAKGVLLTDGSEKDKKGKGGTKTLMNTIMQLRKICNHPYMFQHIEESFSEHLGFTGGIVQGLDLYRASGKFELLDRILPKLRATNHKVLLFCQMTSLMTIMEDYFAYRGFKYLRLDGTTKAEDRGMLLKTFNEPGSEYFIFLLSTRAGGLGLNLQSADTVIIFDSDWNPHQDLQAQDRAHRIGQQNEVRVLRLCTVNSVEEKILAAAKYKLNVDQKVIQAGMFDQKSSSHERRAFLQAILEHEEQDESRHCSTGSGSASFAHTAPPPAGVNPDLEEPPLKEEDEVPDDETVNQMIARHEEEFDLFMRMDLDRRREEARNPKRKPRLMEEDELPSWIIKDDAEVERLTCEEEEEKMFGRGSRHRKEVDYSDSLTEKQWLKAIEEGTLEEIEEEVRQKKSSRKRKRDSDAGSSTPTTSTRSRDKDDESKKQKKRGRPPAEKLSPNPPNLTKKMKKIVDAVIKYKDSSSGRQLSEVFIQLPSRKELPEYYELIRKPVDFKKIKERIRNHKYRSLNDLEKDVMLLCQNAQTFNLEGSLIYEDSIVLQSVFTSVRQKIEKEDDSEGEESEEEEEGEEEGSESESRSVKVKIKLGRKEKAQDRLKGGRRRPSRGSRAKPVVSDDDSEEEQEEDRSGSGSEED
Method in brief: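 BRG-1 ATPase activity was measured by ADP-Glo. Unconsumed ATP was depleted for 40 min at room temperature, then ADP was converted to ATP for 60 min and read as luminescence.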

[1] = ATPase catalytic activity, ADP-Glo

| SMILES | pIC50 (BRM; [1]) | Ratio* (BRM; ratio of BRG1 IC50 to BRM IC50) | pIC50 (BRG-1; [1]) | pIC50 (BRM; ADP-Glo ATPase assay) | Ratio* (BRG1 IC50 (μM) divided by BRM IC50 (μM)) (BRM) | pIC50 (BRG-1; ADP-Glo ATPase assay) | Ratio* (BRM; ratio BRG1 IC50 / BRM IC50) |
| --- | --- | --- | --- | --- | --- | --- | --- |
| CN1CCC2(c3cccc(-c4ccc5cnc(CNC(=O)c6ccc7c(c6)S(=O)(=O)CCOC7)cc5n4)n3)CC2C1 (stereo not drawn) [Compound 699] | 6.56 | 8.04 | 5.66 |  |  |  |  |
| CO[C@@H](C)c1cccc(-c2ccc3cnc(CNC(=O)c4ccc5c(c4)S(=O)(=O)CCOC5)cc3n2)n1 [Compound 69] |  |  |  | 6.58 | 9.44 | 5.61 |  |
| N#Cc1ccc2c(c1)N(c1ccc3cnc(CNC(=O)c4ccc5c(c4)S(=O)(=O)CCOC5)cc3n1)CCC2 [Compound 558] | 8.03 | 14.96 | 6.86 |  |  |  |  |
| C[C@@H]1CN(c2cccc(-c3ccc4cnc(CNC(=O)c5ccc6c(c5)S(=O)(=O)CCOC6)cc4n3)n2)C[C@@H](C)O1 [Compound 215] |  |  |  | 8.15 | 9.47 | 7.18 |  |
| Cc1cc2c(nc1C)N(c1ccc3cnc(CNC(=O)c4ccc5c(c4)S(=O)(=O)CCOC5)cc3n1)CCC2 [Compound 463] | 8.11 | 15.21 | 6.92 |  |  |  |  |
| COCCN1CCCOc2c(-c3ccc4cnc(CNC(=O)c5ccc6c(c5)S(=O)(=O)CCOC6)cc4n3)cccc21 [Compound 313] | 6.98 | 3.69 | 6.41 |  |  |  |  |
| N=S1(=O)CCOCc2ccc(C(=O)NCc3cc4nc(-c5cncc(C6CC6)n5)ccc4cn3)cc21 (stereo not drawn) [Compound 286] |  |  |  | 6.45 | 13.91 | 5.31 |  |
| COc1cc(C2CC2)ccc1-c1ccc2cnc(CNC(=O)c3ccc4c(c3)S(=O)(=O)CCOC4)cc2n1 [Compound 387] | 7.17 | 10.65 | 6.14 |  |  |  |  |
| O=C(NCc1cc2nc(N3CCCc4ccc([C@H]5CC5(F)F)nc43)ccc2cn1)c1ccc2c(c1)S(=O)(=O)CCOC2 [Compound 690] | 7.63 | 54.81 | 5.89 |  |  |  |  |
| O=C(NCc1cc2nc(-c3ccc4c(n3)N3CCOCC3C4)ccc2cn1)c1ccc2c(c1)S(=O)(=O)CCOC2 (stereo not drawn) [Compound 466] | 6.91 | 6.83 | 6.08 |  |  |  |  |
| O=C(NCc1cc2nc(-c3cccc(C4CCOC4)n3)ccc2cn1)c1ccc2c(c1)S(=O)(=O)CCOC2 (stereo not drawn) [Compound 376] | 7.18 | 8.06 | 6.27 |  |  |  |  |
| CS(=O)(=O)c1cc(C(=O)NCc2cc3nc(-c4cncc(C5CC5)n4)ccc3cn2)ccc1Cl [Compound 294] |  |  |  | 6.81 | 17.37 | 5.57 |  |
| COCc1nc2c(cc1Cl)CCCN2c1ccc2cnc(CNC(=O)c3ccc4c(c3)S(=O)(=O)CCOC4)cc2n1 [Compound 599] | 7.23 | 12.54 | 6.13 |  |  |  |  |
| O=C(NCc1cc2nc(-c3cccc(C4=CCOCC4)n3)ccc2cn1)c1ccc2c(c1)S(=O)(=O)CCOC2 [Compound 183] |  |  |  | 8.05 | 11.33 | 6.99 |  |
| CO[C@H](C)COc1ccc2c(c1)N(c1ccc3cnc(CNC(=O)c4ccc5c(c4)S(=O)(=O)CCOC5)cc3n1)CCC2 [Compound 705] |  |  |  | 8.37 |  | 7.24 | 13.63 |
| COCCCN(C)c1cccc(-c2ccc3cnc(CNC(=O)c4ccc5c(c4)S(=O)(=O)CCOC5)cc3n2)n1 [Compound 125] |  |  |  | 7.74 | 12.26 | 6.65 |  |
| COc1nc(C(F)F)ccc1-c1ccc2cnc(CNC(=O)c3ccc4c(c3)S(=O)(=O)[C@@H](C)COC4)cc2n1 [Compound 405] | 7.96 | 17.27 | 6.72 |  |  |  |  |
| COc1ccc2c(c1)OCCN2c1ccc2cnc(CNC(=O)c3ccc4c(c3)S(=O)(=O)CCOC4)cc2n1 [Compound 548] | 8.27 | 9.59 | 7.29 |  |  |  |  |
| CN(C)c1ccnc2c1CCCN2c1ccc2cnc(CNC(=O)c3ccc4c(c3)S(=O)(=O)CCOC4)cc2n1 [Compound 837] |  |  |  | 7.48 |  | 6.79 | 4.95 |

| SMILES | pIC50 (BRM; [1]) | Ratio* (BRM; ratio of BRG1 IC50 to BRM IC50) | pIC50 (BRG-1; [1]) | pIC50 (BRM; ADP-Glo ATPase assay) | Ratio* (BRG1 IC50 (μM) divided by BRM IC50 (μM)) (BRM) | pIC50 (BRG-1; ADP-Glo ATPase assay) | Ratio* (BRM; ratio BRG1 IC50 / BRM IC50) |
| --- | --- | --- | --- | --- | --- | --- | --- |
| C[C@H]1CCOc2c(F)cc(C(=O)NCc3cc4nc(N5CCOc6cccnc65)ccc4cn3)cc2S1(=O)=O [Compound 524] | 7.84 | 11.68 | 6.77 |  |  |  |  |
| C[C@H]1Cc2ccc(-c3ccc4cnc(CNC(=O)c5ccc6c(c5)S(=O)(=O)CCOC6)cc4n3)nc2N(C)C1 [Compound 662] | 7.44 | 4.71 | 6.76 |  |  |  |  |
| COc1nn([C@H]2C[C@@H](F)C2)cc1-c1ccc2cnc(CNC(=O)c3ccc4c(c3)S(=O)(=O)CCOC4)cc2c1 [Compound 134] |  |  |  | 6.73 | 13.28 | 5.61 |  |
| CN(CC1COC1)c1cccc(-c2ccc3cnc(CNC(=O)c4ccc5c(c4)S(=O)(=O)CCOC5)cc3n2)n1 [Compound 71] |  |  |  | 7.62 | 11.93 | 6.55 |  |
| C[C@@H]1CN(c2cccc(-c3cnc4cnc(CNC(=O)c5ccc6c(c5)S(=O)(=O)[C@@H](C)COC6)cc4n3)n2)C[C@H](C)O1 [Compound 710] |  |  |  | 7.53 |  | 6.82 | 5.13 |
| O=C(NCc1cc2nc(N3CCCc4ccc(COC5CC5)nc43)ccc2cn1)c1ccc2c(c1)S(=O)(=O)CCOC2 [Compound 598] | 7.53 | 33.79 | 6.00 |  |  |  |  |
| O=C(NCc1cc2nc(-c3cccc(N4CC(C5COC5)C4)n3)ccc2cn1)c1ccc2c(c1)S(=O)(=O)CCOC2 [Compound 604] | 8.24 | 10.00 | 7.24 |  |  |  |  |
| O=C(NCc1cc2nc(N3CCOc4ccc(C56CC(C5)C6)nc43)ccc2cn1)c1ccc2c(c1)S(=O)(=O)CCOC2 [Compound 766] |  |  |  | 7.77 |  | 6.75 | 10.47 |
| C[C@@H]1CN(c2nccc(-c3ccc4cnc(CNC(=O)c5ccc6c(c5)S(=O)(=O)[C@@H](C)COC6)cc4n3)c2F)C[C@H](C)O1 [Compound 610] | 7.29 | 21.62 | 5.95 |  |  |  |  |
| CCc1ccc2c(n1)N(c1ccc3cnc(CNC(=O)c4ccc5c(c4)S(=O)(=O)CCOC5)cc3n1)CCO2 [Compound 658] | 8.15 | 48.50 | 6.47 |  |  |  |  |
| O=C(NCc1cc2nc(N3CCCCc4cccnc43)ccc2cn1)c1ccc2c(c1)S(=O)(=O)CCOC2 [Compound 469] | 5.63 | 1.82 | 5.37 |  |  |  |  |
| O=C(NCc1cc2nc(N3CCCc4ccc(C(F)CF)nc43)ccc2cn1)c1ccc2c(c1)S(=O)(=O)CCOC2 (stereo not drawn) [Compound 823] |  |  |  | 7.21 |  | 5.96 | 17.84 |
| C[C@@H]1CN(c2cccc(-c3ccc4cnc(CNC(=O)c5cccc(S(C)(=O)=O)c5Cl)cc4n3)n2)C[C@H](C)O1 [Compound 82] |  |  |  | 6.37 | 11.71 | 5.30 |  |
| C[C@H]1COCc2ccc(C(=O)NCc3cc4nc(-c5cccc(OC(F)F)n5)ccc4cn3)cc2S1(=O)=O [Compound 384] | 7.84 | 28.41 | 6.39 |  |  |  |  |
| O=C(NCc1cc2nc(-c3cccc(N4CC5(C4)CC5(F)F)n3)ccc2cn1)c1ccc2c(c1)S(=O)(=O)CCOC2 [Compound 128] |  |  |  | 7.37 | 10.99 | 6.33 |  |
| O=C(NCc1cc2nc(N3CCOc4c(F)cc(C5CC5)nc43)ccc2cn1)c1ccc2c(c1)S(=O)(=O)CCOC2 [Compound 804] |  |  |  | 7.80 |  | 6.19 | 40.93 |
| CC1COCc2ccc(C(=O)NCc3cc4nc(-c5cccc(N6CCC6)n5)ccc4cn3)cc2S1(=O)=O (single isomer, unassigned) [Compound 199] |  |  |  | 6.60 | 9.56 | 5.62 |  |
| O=C(NCc1cc2nc(N3CCOc4cc(C5CC5)ccc43)cnc2cn1)c1ccc2c(c1)S(=O)(=O)CCOC2 [Compound 844] |  |  |  | 7.72 |  | 6.42 | 19.99 |
